In US20060052357A1, “Organometallic anti-tumour agent” (priority 2001, published 2006):

Legend:
[1] = Solubility and stability in air
[2] = system: adenocarcinoma; assay: Adenocarcinoma transplanted after administration of the product; assay type: in vivo, mice; conditions: day 21
Experimental: 3. Antitumor Activity for Adenocarcinoma Transplanted After Administration of the Product.
The active ingredient of the invention was administered intravenously in the dosage stated in the table 4 days in succession in physiological saline solution of 0.3 ml each time. The adenocarcinoma was then implanted in the Balb mice. 21 days after the tumor was transplanted, the animals were sacrificed and the weight and size of the tumor recorded. The animals received no other drugs during the experiment and were kept with a normal feed ration.

[3] = Hydrolysis stability; assay type: physicochemical; conditions: for period of stability (no hydrolysis): 20° C.
Experimental: 0.6 g of (C5H7O2)2—Cu—C13H18Cl2N2O2 was dispersed in 100 ml of water or physiological saline solution with the aid of an ultrasound generator (frequency: 15 kHz, 10 minutes).
0.6 g of (C5H7O2)2—Cu—C13H18Cl2N2O2 was dispersed in 100 ml of 100% olive oil with the aid of an ultrasound generator (frequency: 15 kHz, 10 minutes).
0.1 g of (C5H7O2)2—Cu—C13H18Cl2N2O2 was dispersed in 100 ml of linoleic acid or linolenic acid with the aid of an ultrasound generator (frequency: 15 kHz, 10 minutes).

[4] = 5 mg/kg i.v. 4 days before implantation

CC(=O)C=C(C)[O-].CC(=O)C=C(C)[O-].NC(Cc1ccc(N(CCCl)CCCl)cc1)C(=O)O.[Cu+2] (centres unmarked) [MOC.melphalan, (C5H7O2)2—Cu—C13H18Cl2N2O2]
solubility in water [1]: poor solubility
% inhibition (mass of the tumor) [2, 4]: 80%
% inhibition (size of the tumor) [2, 4]: 82.5%
Size of the tumor ([2]; 5 mg/kg i.v. 4 days before implantation, control 7.9): 1.38 cm^3
Mass of the tumor ([2]; 5 mg/kg i.v. 4 days in succession before implantation, control 4.46): 0.91 g
period of stability ([3]; 0.1 g in 100 ml of linoleic acid or linolenic acid, 20° C. in air): 1 year
period of stability (no hydrolysis) ([3]; 0.6 g in 100 ml of 100% olive oil): more than 2 years
period of stability (no hydrolysis) ([3]; 0.6 g in 100 ml of water or physiological saline solution): 30 days
